Results from patent US6355799B1, “Substituted benzene compounds, process for their preparation, and herbicidal and defoliant compositions containing them” (ISK Americas Incorporated, priority 1997, dated 2002).

Key:
Format in all cases: in vivo
[1] = tested on: redroot pigweed (Amaranthus retroflexus, AMARE); test: Pre-emerge test, greenhouse herbicide activity screening; details: rating scale 0-100, 14 days after application
Excerpt: (§1) A standard greenhouse herbicide activity screening system was used to evaluate the herbicidal efficacy and crop safety of these test compounds. Seven broadleaf weed species including redroot pigweed (Amaranthus retroflexus, AMARE, velvetleaf (Abutilon theophrasti, ABUTH), sicklepod (Cassia obtusifolia, CASOB), ivyleaf morningglory (Ipomoea hederacea, IPOHE), lambsquarters (Chenopodium album, CHEAL), common ragweed (Ambrosia artemisizfolia L., AMBEL), and cocklebur (Xanthium strumarium, XANST) were used as test species. Four grass weed species including green foxtail (Setaria viridis, SETVI), barnyardgrass (Echinochloa crus-galli, ECHCG), johnsongrass (Sorghum halepense, SORHA), and large crabgrass (Digitaria sanguinalis, DIGSA) were also used. In addition, three crop species, field corn (Zea mays L., var. Dekalb 535, CORN), soybean (Glycine max L., var. Pella 86, SOY), and is upland rice (Oryza sp., var. Tebonnet, RICE) were included.
(§2) All plants were grown in 10 cm square plastic pots which were filled with a sandy loam soil mix. For pre-emerge tests, seeds were planted one day prior to application of the test compounds. For post-emerge tests, seeds were planted 8-21 days prior to the test to allow emergence and good foliage development prior to application of the test substances. At the time of the post-emerge application, plants of all species were usually at the 2-3 leaf stage of development.
All test compounds Were dissolved in acetone and applied to the test units in a volume of 187 l /ha. […] Plants were arranged on a shelf so that the top of the canopy (post-emerge) or top of the soil surface (pre-emerge) was 40-45 cm below the nozzle. Pressurized air was used to force the test solution through the nozzle as it was mechanically advanced (via electrically driven chain drive) over the top of all test plants/pots. This application simulates a typical commercial field herbicide application.
(§3) In the post-emerge test, a commercial non-ionic surfactant was also included (0.25% v/v) to enhance wetting of the leaf surfaces of target plants. Immediately after application, test units of the pre-emerge applications were watered at the soil surface to incorporate the test materials. Subsequently, these test units were bottom-watered. Post-emerge test units were always bottom-watered.
(§4) At 14 days after application of the test materials, phytotoxicity ratings were recorded. A rating scale of 0-100 was used as previously described in Research Methods in Weed Science, 2nd edition, B. Truelove, Ed., Southern Weed Science Society, Auburn University, Auburn, Ala. 1977. Briefly, “0” corresponds to no damage and “100” corresponds to complete death of all plants in the test unit. This scale was used both to determine efficacy against weed species and damage to crop species. Herbicide activity data for various compounds of this invention, which are shown by compound No. in Tables 1-8, are shown in Tables 11 and 12.

[2] = tested on: barnyardgrass (Echinochloa crus-galli, ECHCG); test: as above; details: rating scale 0-100, 14 days after application
Excerpt: as §1, §2
(§5) All test compounds Were dissolved in acetone and applied to the test units in a volume of 187 l /ha. Test materials were applied at rates ranging from 15 g ai/ha to 1000 g ai/ha using a track sprayer equipped with a TJ8001E even flow flat fan spray nozzle. Plants were arranged on a shelf so that the top of the canopy (post-emerge) or top of the soil surface (pre-emerge) was 40-45 cm below the nozzle. Pressurized air was used to force the test solution through the nozzle as it was mechanically advanced (via electrically driven chain drive) over the top of all test plants/pots. This application simulates a typical commercial field herbicide application.
as §3, §4

[3] = tested on: green foxtail (Setaria viridis, SETVI); test: as above; details: rating scale 0-100, 14 days after application
Excerpt: as §1, §2, §5, §3, §4

[4] = tested on: ivyleaf morningglory (Ipomoea hederacea, IPOHE); test: as above; details: rating scale 0-100, 14 days after application
Excerpt: as §1, §2, §5, §3, §4

[5] = tested on: lambsquarters (Chenopodium album, CHEAL); test: as above; details: rating scale 0-100, 14 days after application
Excerpt: as §1, §2, §5, §3, §4

[6] = tested on: large crabgrass (Digitaria sanguinalis, DIGSA); test: as above; details: rating scale 0-100, 14 days after application
Excerpt: as §1, §2, §5, §3, §4

[7] = tested on: sicklepod (Cassia obtusifolia, CASOB); test: as above; details: rating scale 0-100, 14 days after application
Excerpt: as §1, §2, §5, §3, §4

[8] = tested on: velvetleaf (Abutilon theophrasti, ABUTH); test: as above; details: rating scale 0-100, 14 days after application
Excerpt: as §1, §2, §5, §3, §4

[9] = tested on: barnyardgrass (Echinochloa crus-galli, ECHCG); test: Post-emerge test, greenhouse herbicide activity screening; details: rating scale 0-100 (0 no damage, 100 complete death), 14 days after application
Excerpt: as §1, §2, §5, §3, §4

[10] = tested on: green foxtail (Setaria viridis, SETVI); test: as above; details: rating scale 0-100 (0 no damage, 100 complete death), 14 days after application
Excerpt: as §1, §2, §5, §3, §4

[11] = tested on: ivyleaf morningglory (Ipomoea hederacea, IPOHE); test: as above; details: rating scale 0-100 (0 no damage, 100 complete death), 14 days after application
Excerpt: as §1, §2, §5, §3, §4

[12] = tested on: lambsquarters (Chenopodium album, CHEAL); test: as above; details: rating scale 0-100 (0 no damage, 100 complete death), 14 days after application
Excerpt: as §1, §2, §5, §3, §4

[13] = tested on: large crabgrass (Digitaria sanguinalis, DIGSA); test: as above; details: rating scale 0-100 (0 no damage, 100 complete death), 14 days after application
Excerpt: as §1, §2, §5, §3, §4

[14] = tested on: redroot pigweed (Amaranthus retroflexus, AMARE); test: as above; details: rating scale 0-100 (0 no damage, 100 complete death), 14 days after application
Excerpt: as §1, §2, §5, §3, §4

[15] = tested on: sicklepod (Cassia obtusifolia, CASOB); test: as above; details: rating scale 0-100 (0 no damage, 100 complete death), 14 days after application
Excerpt: as §1, §2, §5, §3, §4

[16] = tested on: velvetleaf (Abutilon theophrasti, ABUTH); test: as above; details: rating scale 0-100 (0 no damage, 100 complete death), 14 days after application
Excerpt: as §1, §2, §5, §3, §4

Compound: CCOC(=O)C(Cl)Cc1c(OC)c(Cl)cc(F)c1-n1c(=O)cc(C(F)(F)F)n(C)c1=O (single isomer, unassigned) [Compound 14-5, 3-{4-chloro-2-[2-chloro-2-(ethoxycarbonyl)ethyl]-6-fluoro-3-methoxyphenyl}-1-methyl-6-trifluoromethyl-2,4(1H, 3H)-pyrimidinedione]
- Pre-emerge herbicidal activity, phytotoxicity rating AMARE ([1]; 63 g ai/ha): 70
- Pre-emerge herbicidal activity, phytotoxicity rating AMARE ([1]; 250 g ai/ha): 100
- Pre-emerge herbicidal activity, phytotoxicity rating ECHCG ([2]; 63 g ai/ha): 0
- Pre-emerge herbicidal activity, phytotoxicity rating ECHCG ([2]; 250 g ai/ha): 40
- Pre-emerge herbicidal activity, phytotoxicity rating SETVI ([3]; 63 g ai/ha): 10
- Pre-emerge herbicidal activity, phytotoxicity rating SETVI ([3]; 250 g ai/ha): 60
- Pre-emerge herbicidal activity, phytotoxicity rating IPOHE ([4]; 63 g ai/ha): 20
- Pre-emerge herbicidal activity, phytotoxicity rating IPOHE ([4]; 250 g ai/ha): 30
- Pre-emerge herbicidal activity, phytotoxicity rating CHEAL ([5]; 63 g ai/ha): 70
- Pre-emerge herbicidal activity, phytotoxicity rating CHEAL ([5]; 250 g ai/ha): 100
- Pre-emerge herbicidal activity, phytotoxicity rating DIGSA ([6]; 63 g ai/ha): 20
- Pre-emerge herbicidal activity, phytotoxicity rating DIGSA ([6]; 250 g ai/ha): 95
- Pre-emerge herbicidal activity, phytotoxicity rating CASOB ([7]; 63 g ai/ha): 0
- Pre-emerge herbicidal activity, phytotoxicity rating CASOB ([7]; 250 g ai/ha): 10
- Pre-emerge herbicidal activity, phytotoxicity rating ABUTH ([8]; 63 g ai/ha): 100
- Pre-emerge herbicidal activity, phytotoxicity rating ABUTH ([8]; 250 g ai/ha): 100
- Post-emerge Herbicidal Activity, phytotoxicity rating ECHCG ([9]; Rate 63 g ai/ha): 40
- Post-emerge Herbicidal Activity, phytotoxicity rating ECHCG ([9]; Rate 250 g ai/ha): 100
- Post-emerge Herbicidal Activity, phytotoxicity rating SETVI ([10]; Rate 63 g ai/ha): 60
- Post-emerge Herbicidal Activity, phytotoxicity rating SETVI ([10]; Rate 250 g ai/ha): 95
- Post-emerge Herbicidal Activity, phytotoxicity rating IPOHE ([11]; Rate 63 g ai/ha): 30
- Post-emerge Herbicidal Activity, phytotoxicity rating IPOHE ([11]; Rate 250 g ai/ha): 100
- Post-emerge Herbicidal Activity, phytotoxicity rating CHEAL ([12]; Rate 63 g ai/ha): 100
- Post-emerge Herbicidal Activity, phytotoxicity rating CHEAL ([12]; Rate 250 g ai/ha): 100
- Post-emerge Herbicidal Activity, phytotoxicity rating DIGSA ([13]; Rate 63 g ai/ha): 95
- Post-emerge Herbicidal Activity, phytotoxicity rating DIGSA ([13]; Rate 250 g ai/ha): 100
- Post-emerge Herbicidal Activity, phytotoxicity rating AMARE ([14]; Rate 63 g ai/ha): 100
- Post-emerge Herbicidal Activity, phytotoxicity rating AMARE ([14]; Rate 250 g ai/ha): 100
- Post-emerge Herbicidal Activity, phytotoxicity rating CASOB ([15]; Rate 63 g ai/ha): 10
- Post-emerge Herbicidal Activity, phytotoxicity rating CASOB ([15]; Rate 250 g ai/ha): 50
- Post-emerge Herbicidal Activity, phytotoxicity rating ABUTH ([16]; Rate 63 g ai/ha): 100
- Post-emerge Herbicidal Activity, phytotoxicity rating ABUTH ([16]; Rate 250 g ai/ha): 100
